Results published in ChEMBL document CHEMBL1135954, “Opioid activity of 4-imidazolidinone positional analogues of Leu-Enkephalin” (Bioorg Med Chem Lett, 2002).
Peptide text beside a SMILES is read from it. * marks the point of attachment. X1 = CC(C)C[C@H]1C(=O)NCN1*

Legend:
[1] = molecular target: Kappa-type opioid receptor (Rattus norvegicus, UniProt P34975); assay: Binding affinity towards Opioid receptor kappa 1 was determined using U69,593 as the radioligand.
Mu-type opioid receptor = Mu-type opioid receptor (Rattus norvegicus, UniProt P33535)
Mu-type opioid receptor, sequence (P33535 whole entry): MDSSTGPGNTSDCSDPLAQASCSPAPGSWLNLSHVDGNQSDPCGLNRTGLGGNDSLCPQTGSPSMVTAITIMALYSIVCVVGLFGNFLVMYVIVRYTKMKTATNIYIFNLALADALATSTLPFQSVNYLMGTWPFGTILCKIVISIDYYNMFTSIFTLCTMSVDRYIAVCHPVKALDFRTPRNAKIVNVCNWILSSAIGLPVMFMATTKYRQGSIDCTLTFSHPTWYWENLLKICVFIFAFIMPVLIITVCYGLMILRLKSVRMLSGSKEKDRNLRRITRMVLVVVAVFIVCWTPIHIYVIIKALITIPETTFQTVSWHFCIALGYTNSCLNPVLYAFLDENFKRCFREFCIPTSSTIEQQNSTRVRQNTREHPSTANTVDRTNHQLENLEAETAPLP

Kappa-type opioid receptor, sequence (P34975 whole entry): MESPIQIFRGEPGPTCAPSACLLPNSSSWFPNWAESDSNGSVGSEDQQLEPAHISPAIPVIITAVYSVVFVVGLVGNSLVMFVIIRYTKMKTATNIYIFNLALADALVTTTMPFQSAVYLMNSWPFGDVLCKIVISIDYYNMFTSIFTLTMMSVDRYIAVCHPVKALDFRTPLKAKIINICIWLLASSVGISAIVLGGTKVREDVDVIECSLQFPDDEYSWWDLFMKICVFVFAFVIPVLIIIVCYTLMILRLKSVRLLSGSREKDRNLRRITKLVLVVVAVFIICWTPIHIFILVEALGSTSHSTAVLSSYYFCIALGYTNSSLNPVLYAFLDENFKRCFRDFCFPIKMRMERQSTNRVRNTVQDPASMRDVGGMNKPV

SMILES | Ki [1] [µM] | Ki (Mu-type opioid receptor) [µM]
CC(C)C[C@H](NC(=O)[C@H](Cc1ccccc1)N1CN(C(=O)CNC(=O)[C@@H](N)Cc2ccc(O)cc2)CC1=O)C(N)=O | > 10 | 0.236
CC(C)C[C@@H](C(N)=O)N1CN(C(=O)CNC(=O)CNC(=O)[C@@H](N)Cc2ccc(O)cc2)[C@@H](Cc2ccccc2)C1=O | > 10 | 2.56
CNC(=O)[C@H](CC(C)C)N(C)C(=O)[C@H](Cc1ccccc1)NC(=O)CNC(=O)CNC(=O)[C@@H](N)Cc1ccc(O)cc1 | 1.69 | 0.028
CC(C)C[C@H](NC(=O)[C@H](Cc1ccccc1)NC(=O)CNC(=O)CN1CN[C@@H](Cc2ccc(O)cc2)C1=O)C(N)=O | > 10 | 0.547
CNC(=O)[C@H](CC(C)C)NC(=O)[C@H](Cc1ccccc1)NC(=O)CNC(=O)CNC(=O)[C@@H](N)Cc1ccc(O)cc1 | 1.37 | 0.145
CC(C)C[C@H]1C(=O)NCN1C(=O)[C@H](Cc1ccccc1)NC(=O)CNC(=O)CNC(=O)[C@@H](N)Cc1ccc(O)cc1 (H-YGGF-X1) | 2.89 | 0.004
CC(C)C[C@H](NC(=O)[C@H](Cc1ccccc1)NC(=O)CN1CN(C(=O)[C@@H](N)Cc2ccc(O)cc2)CC1=O)C(N)=O | > 10 | 0.092
CC(C)C[C@@H](C(N)=O)N(C)C(=O)[C@H](Cc1ccccc1)NC(=O)CNC(=O)CNC(=O)[C@@H](N)Cc1ccc(O)cc1 | 2.23 | 0.046
